Assay results as given in patent US20090181904A1, “METHOD FOR REGULATING NUTRIENT ABSORPTION WITH GINSENOSIDES” (priority 2005, published 2009).

Assays:
Assay type in all cases: cell-based, human
Caco2 cell monolayer = assay: Glucose absorption assay (transport across Caco2 monolayer in transwell, 14C-glucose); settings: for Transport rate (glucose): 2 days pretreatment, 25 mM glucose
Description: For glucose absorption assay, 0.3 mL (10^5 cell/ml) of Caco2 cells were seeded into the apical chamber of each transwell and the basolateral chamber was added with 1 ml of culture medium (as indicated above). Costar transwell inserts (No. 3414, Corning Incorporated, NY, USA) separate each well in 24-well plates into an apical chamber (defined as a chamber above the insert) and a basolateral chamber (defined as a chamber below the insert). The culture medium in each transwell was changed every 2 days in both of the apical and basolateral chambers. To ensure the integrity of tight junction of Caco2 monolayer membrane formed in the transwell, a Trans-Epithelial Electrical Resistance (TEER) assay was conducted using Millicell®-ERS (Millipore EVOM-6; World Precision Instrument, Sarasota, Fla., USA) to measure the TEER between apical and basolateral chambers of the transwell. As the measured TEER reached 300 to 450 Ωcm^2 with the presence of differentiated brush border on the […] side of the cell on the 14th to 21st day of the culture, the Caco2 monolayer was ready for the glucose absorption test. The TEER values were taken before, during, and after each experiment to justify consistency of the data collected.
Glucose absorption was initiated by replacing the culture medium in the basolateral chamber with fresh glucose absorption buffer and the culture medium in the apical chamber with 0.2 mL of the glucose absorption buffer containing 2 μCi/ml of radioactive D-[^14C]-glucose (60 Ci/mmol, American Radiolabeled Chemicals, ARC, St. Louis, Mo., USA) and unlabeled cold glucose to give glucose at a final concentration of 25 mM. A series of five 10-μL samples were taken from the basolateral chamber at every 5 or 10 minute intervals. In order to maintain the constant buffer volume, same amount of sample buffer were added back to the basolateral chamber after withdrawn of each sample. The samples were transferred to the filter-bottomed UniFilter plates (Perkin-Elmer, Wellesley, Mass., USA) and dried in a vacuum oven at 37° C. The bottom of the UniFilter plate was sealed and 25 μL of the counting solution were added into each well. Adhesive plate sealers were used in place of the lids and radioactivity of each sample was counted using the microplate liquid scintillation counter (TopCount, Packard NXT, Packard BioScience Company, Meriden, Conn., USA). The effect of test compounds on glucose absorption was expressed as the nmoles of glucose accumulated in the basolateral chamber with respect to time in minutes (nmol/min). The glucose absorption rate was obtained by calculating the slope of the straight line from the time zero to the end point of the graphic data of each figure.

Caco-2 cell monolayer = assay: Arginine absorption assay (transport across Caco-2 monolayer, 3H-arginine); settings: for Transport rate (arginine): 10 mM L-arginine
Description: In measuring transport of arginine across the Caco-2 cell monolayer, both sides of the transwells were washed with arginine incubation buffer consisting of: 137 mM NaCl, 10 mM Hepes, 0.3 mM NaH2PO4, 0.3 mM K2HPO4, 5.4 mM KCl, 2.8 mM CaCl2, 1 mM MgSO4, 10 mM glucose, adjusted to pH 7.4. Then, the cell layer was pre-incubated in the incubation buffer at 37° C. for 1 h. The volumes of incubation buffer were 0.2 mL and 0.9 mL in the apical and basolateral chambers, respectively. The cells were replaced with fresh incubation medium in both chambers prior to the transport experiment. The transport experiment was initiated by replacing the incubation solution on the apical side with solution containing 10 mM of L-arginine in which 0.125 μCi/mL of L-[^3H]-arginine was included. At designated time intervals, 10 μL-solution samples were removed from the basolateral side and radioactivity of each sample was counted using a microplate liquid scintillation counter (TopCount, Packard NXT). During the experiment, when a 10 μL-solution sample was removed from the basolateral side every time, 10 μL buffer was supplemented to keep the volume constant. The uptake of [^3H]-mannitol was used to correct for nonspecific transport of molecules across the monolayer membrane. Results were expressed as the nanomoles of arginine transport across the Caco-2 cell monolayers with respect to time in minutes (nmol/min).

Caco2 cells = assay: Folate uptake assay (3H-folate uptake in Caco2 cells); settings: compound 0.1 μM; for Transport rate (folate uptake): 2 days pretreatment, 5 μM folate, pH 6.0
Description: The Caco2 cells were subjected to folate uptake test in a manner similar to that described in the glucose uptake assay in Example 1 above. In the folate uptake test, the Caco2 cells were pretreated with the culture medium containing 5% FBS and purified ginsenosides at a concentration of […] for 2 days before the cells were cultured in a folate uptake buffer (Hank's balanced salt solution, supplemented with 0.14 g/L CaCl2, 0.1 g/L MgCl2, and 0.1 g/L MgSO4, pH 6.0) for 1 hour. The buffer was then aspirated, and uptake was initiated by adding 0.2 mL of fresh folate uptake buffer containing 2 μCi/mL radioactive folate (3,5,7,9-^3H-folic acid, 25 mCi/mmol, ARC) and cold, unlabeled folate giving a final folate concentration of 5 μM. Folate uptake was terminated by removing the uptake buffer at designated time intervals. The cells were then washed three times with ice-cold PBS and lysed by adding 0.2 mL of 0.2 N NaOH, followed by incubating at 65° C. for 20 min. Intracellular uptake of ^3H-folate was determined by transferring 20 μL of the cell lysate to the filter-bottomed UniFilter plates (Perkin-Elmer) and counting as described previously in Example 1. The amount of folate accumulated in the cells was calculated and normalized to protein concentration, and uptake rate was expressed as picomoles of folate per minutes per milligram of cell protein (pmol/min/mg). Protein concentration was determined by a standard Bicinchoninic acid (BCA) protein assay as described above.

SMILES | Percentage (glucose transport, control = 100) (Caco2 cell monolayer; compound 0.01 μM) [%] | Transport rate (glucose) (Caco2 cell monolayer; compound 0.01 μM) [nmol/min] | Percentage (glucose transport, control = 100) (Caco2 cell monolayer; compound 0.1 μM) [%] | Transport rate (glucose) (Caco2 cell monolayer; compound 0.1 μM) [nmol/min] | Percentage (glucose transport, control = 100) (Caco2 cell monolayer; compound 1 μM) [%] | Transport rate (glucose) (Caco2 cell monolayer; compound 1 μM) [nmol/min] | Percentage (arginine transport, control = 100) (Caco-2 cell monolayer; compound 0.01 μM) [%] | Transport rate (arginine) (Caco-2 cell monolayer; compound 0.01 μM) [nmol/min] | Percentage (arginine transport, control = 100) (Caco-2 cell monolayer; compound 0.1 μM) [%] | Transport rate (arginine) (Caco-2 cell monolayer; compound 0.1 μM) [nmol/min] | Percentage (arginine transport, control = 100) (Caco-2 cell monolayer; compound 1 μM) [%] | Transport rate (arginine) (Caco-2 cell monolayer; compound 1 μM) [nmol/min] | glucose transport rate (in words, FIG. 1) (Caco2 cell monolayer; compound 0.1 μM to 5 μM) | Percentage (folate uptake, control = 100) (Caco2 cells) [%] | folate uptake versus non-treated control (in words, FIG. 5) (Caco2 cells) | Transport rate (folate uptake) (Caco2 cells) [pmol/mg/min] | effect on glucose absorption (in words) (Caco2 cell monolayer)
CC(C)=CCC[C@](C)(O[C@@H]1O[C@H](CO)[C@@H](O)[C@H](O)[C@H]1O)[C@H]1CC[C@]2(C)[C@@H]1[C@H](O)C[C@@H]1[C@@]3(C)CC[C@H](O)C(C)(C)[C@@H]3[C@@H](O)C[C@]12C [GF1, ginsenoside F1] | 141.12 | 3.0783 ± 0.9550 | 153.80 | 3.3551 ± 0.3248 | 150.65 | 3.2862 ± 0.3429 | 126.74 | 13.5425 ± 1.8630 | 118.73 | 12.6865 ± 0.2964 | 97.06 | 10.3711 ± 0.6574 | – | – | – | – | –
CC(C)=CCC[C@](C)(O[C@@H]1O[C@H](CO[C@@H]2O[C@H](CO)[C@@H](O)[C@H](O)[C@H]2O)[C@@H](O)[C@H](O)[C@H]1O)[C@H]1CC[C@]2(C)[C@@H]1[C@H](O)C[C@@H]1[C@@]3(C)CC[C@H](O[C@@H]4O[C@H](CO)[C@@H](O)[C@H](O)[C@H]4O[C@@H]4O[C@H](CO)[C@@H](O)[C@H](O)[C@H]4O)C(C)(C)[C@@H]3CC[C@]12C [Rb1, ginsenoside Rb1] | 102.26 | 2.2306 ± 0.1034 | 128.85 | 2.8107 ± 0.1982 | 157.01 | 3.4250 ± 0.4805 | 90.30 | 9.6487 ± 0.9377 | 111.08 | 11.8699 ± 1.9300 | 151.12 | 16.1484 ± 0.6228 | increased | 108.72 | increased folate uptake | 1.8710 ± 0.0320 | –
CC(C)=CCC[C@](C)(O)[C@H]1CC[C@]2(C)[C@@H]1[C@H](O)C[C@@H]1[C@@]3(C)CC[C@H](O)C(C)(C)[C@@H]3[C@@H](O)C[C@]12C [Rga, 20(S)-protopanaxatriol] | 116.69 | 2.5454 ± 0.7808 | 167.15 | 3.6462 ± 0.4105 | 104.01 | 2.2689 ± 0.2598 | 118.16 | 12.6265 ± 0.9875 | 100.66 | 10.7555 ± 0.4532 | 95.38 | 10.1920 ± 1.2390 | – | – | – | – | –
CC(C)=CCC[C@](C)(O)C1CC[C@]2(C)C1C(O)CC1[C@@]3(C)CCC(O)C(C)(C)C3C(OC3OC(CO)C(O)C(O)C3O)C[C@]12C (some centres unmarked) [Rh1, ginsenoside Rh1] | 62.20 | 1.3568 ± 0.1090 | 74.86 | 1.6329 ± 0.1976 | 61.02 | 1.3310 ± 0.8356 | 105.56 | 11.2792 ± 0.7768 | 109.13 | 11.6615 ± 0.8085 | 134.02 | 14.3209 ± 0.7418 | – | 49.36 | decreased | 0.8494 ± 0.453 | inhibitory effect
